These results are taken from US5204323A, “Heparin and hirudin antidotal compositions and methods” (Ciba-Geigy Corporation, priority 1988, dated 1993).

Structures are written as SMILES.

For assay [1], the system named is hirudin induced elevation of APTT in human plasma. Briefly: Hirudin induced elevation of APTT in vitro in blood samples taken after DDAVP infusion. Type of assay: in vivo. The conditions noted are these: blood samples of human volunteers after DDAVP infusion (0.3 mg/kg, 15 minutes); desulphatohirudin HV1 added in vitro; FIG. 7. On the procedure: The anticoagulant effects of hirudin are measured in vitro on human plasma to which various concentrations of hirudin (in saline) have been added, one minute prior to APTT determination (Activated partial thromboplastin time; means for measuring blood clotting according to Basu et al. (1972) N. Engl. J. Med. 287, 324). Different concentrations of FVIII (reconstituted in water in accordance with the manufacturers specification) are added and the results are shown in FIG. 3 of the accompanying drawings. The anticoagulant effects of hirudin are measured by APTT.
(§1) 1-Deamino-8-D-arginine vasopressin (DDAVP) ([…] in sterile saline) is infused into human volunteers over a 15 minute period between times 0-15 minutes. Subsequently blood samples are taken and FVIII levels measured (Langdell et al. (1953) J. Lab. Chim. Med. 41, 637) and the correspond. ing effect on hirudin induced elevation of APTT in vitro asessed. The results are shown in FIG. 7 which represent a typical example of ten volunteer studies. […] Results are compared to volume matched saline controls.

Assay [2] relates to Factor VIII levels in human plasma. Briefly: DDAVP infusion into human volunteers, Factor VIII levels in plasma. It counts as in vivo. Conditions: DDAVP 0.3 mg/kg in sterile saline infused over 15 minutes, compared to volume matched saline controls, FIG. 7. The procedure:
as §1

For `NC(=O)CC[C@@H]1NC(=O)[C@H](Cc2ccccc2)NC(=O)[C@H](Cc2ccc(O)cc2)NC(=O)CCSSC[C@@H](C(=O)N2CCC[C@H]2C(=O)N[C@H](CCCN=C(N)N)C(=O)NCC(N)=O)NC(=O)[C@H](CC(N)=O)NC1=O` [DDAVP, 1-deamino-8-D-arginine vasopressin], the “effect on hirudin induced elevation of APTT in vitro” value in assay [1] is reported as “reduces the degree of anticoagulation induced by hirudin”. In assay [2], the FVIII levels entry was “raised FVIII levels”.
